The values below come from patent US20220225616A1, “Antifungal Wallboards” (LANXESS Deutschland GmbH, priority 2019, published 2022).

“Also recorded” adds a separate entry of the source.

For one experiment, the system named is Stachybotris chartarum. The experiment can be described thus: Gypsum board hand sheet efficacy testing (core protection), ASTM G 21-09. The conditions noted are these: in gypsum core, 4 weeks at 28-30° C. The source says:
(§1) For examination of the antifungal performance of the TBZ/BBIT combinations testing directly in gypsum boards provides realistic and practically relevant data for evaluation. […] For this purpose, a typical slurry recipe as given below for board production is used. Gypsum Board recipe:
(§2) The slurry is formed by mixing the dry components and the wet components together. The slurry is then mixed to achieve a homogeneous consistency. The fungicides are incorporated during preparation of the gypsum slurry by adding and mixing the fungicidal mixtures. For sandwiching the gypsum core, untreated cardboard (without fungicide) with a grammage of appr. 180 g/m^2 was used and after assembly of the plate the hand sheets are dried. The following antifungal compounds and respective formulations were used: • Thiabendazole • Butylbenzthiazole
(§3) For efficacy testing a test method of ASTM G 21 of 2009 was applied. As only change additional to the fungi mix as required by ASTM G 21-09, Fusarium solani and Aspergillus hiratsukae were included as further components of the mixed inoculum. According to this method, the manufactured gypsum boards as described above and after having been cut to an adequate size are placed on an agarplate and superficially are spoiled with fungal spores for a determined period of time of at the most 4 weeks. The respective total amount of actives in ppm based in gypsum/plaster (CaSO4(0.5 H2O) can be seen in the table.
(§4) Spore suspensions are produced for each fungi (spore concentrations of approximately 10^6/ml). Organisms which are included in ASTM G 21 comprise Aspergillus niger (ATCC 9642), Aureobasidium pullulans (ATCC 15233) Chaetomium globosum (ATCC 6205), Gliocladium virens (ATCC 6459) and Penicillium pinophilium (ATCC 11797) (as pure culture but also as mixed inoculum), however any other fungi species known to be able to grow in gypsum boards may be used in addition or instead. Mineral agar (according to ASTM G21 of 2009) was used as growth media in the agar plates. Before inoculation the gypsum board hand sheets are cut into pieces of appr. 5×5 cm.
(§5) For every concentration level, 3 test pieces are used in the test. Each sample is placed in a separate petri dish and then inoculated with the fungi. The samples are then incubated at 28-30° C. for 28 days. Pre-reading of the samples may be performed at approximately 10 days after inoculation. The activity of the treatments may be assessed visually, using a rating system of 0-4 for growth inhibition of fungal growth.
(§6) The reported results are recorded after 4 weeks testing at 28-30° C. according to the requirements of test method ASTM G 21 can be seen from Table 2: […]

Experiment [1] deals with Fungi Mix: standard ASTM G 21-09 species extended by Fusarium solani and Aspergillus hiratsukae. Described as above. The conditions noted are these: for Fungal growth rating, Fungi Mix: in gypsum core, 4 weeks at 28-30° C.; for Overall efficacy in gypsum board test, in words: tested concentration range 25-300 ppm, interpretation of tables 2 and 3.
Description: as §1, §2, §3, §4, §5, §6

Setting [2] is: 25 ppm total actives based on gypsum/plaster.
Where [3] appears, read: 50 ppm total actives based on gypsum/plaster.
The mark [4] stands for this setting: 100 ppm total actives based on gypsum/plaster.
Setting [5] is: 200 ppm total actives based on gypsum/plaster.
The mark [6] stands for this setting: 300 ppm total actives based on gypsum/plaster.

As for `CO/C=C(/C(=O)OC)c1ccccc1Oc1cc(Oc2ccccc2C#N)ncn1` [AZO, Azoxystrobin], the “Fungal growth rating, Stachybotris” value with Stachybotris chartarum (setting [2]), in the experiment with Stachybotris chartarum (setting [3]), in the experiment with Stachybotris chartarum (setting [4]), in the experiment on Stachybotris chartarum (setting [5]) and in the experiment on Stachybotris chartarum (setting [6]) was 4 (Heavy growth (60% to complete coverage)) throughout. The “Fungal growth rating, Fungi Mix” value in experiment [1] (setting [2]), in experiment [1] (setting [3]), in experiment [1] (setting [4]), in experiment [1] (setting [5]) and in experiment [1] (setting [6]) was 4 (Heavy growth (60% to complete coverage)) each time. In experiment [1], the “Overall efficacy in gypsum board test, in words” value (shortened to “Overall efficacy”) is “neither TBZ nor AZO alone are good enough to pass the ASTM G 21 test”.
Take `CCCCn1sc2ccccc2c1=O` [BBIT, 2-butyl-1,2-benzisothiazolin-3-one]: the “Fungal growth rating, Stachybotris” value in the experiment with Stachybotris chartarum (setting [2]) is recorded as 4 (Heavy growth (60% to complete coverage)); in the experiment on Stachybotris chartarum (setting [3]), 4 (Heavy growth (60% to complete coverage)); in the experiment on Stachybotris chartarum (setting [4]), 4 (Heavy growth (60% to complete coverage)); in the experiment with Stachybotris chartarum (setting [5]) it was 2 (Light growth (10 to 30%)); in the experiment on Stachybotris chartarum (setting [6]), 1 (Traces of growth (less than 10%)). Besides, the “Fungal growth rating, Fungi Mix” value is 4 (Heavy growth (60% to complete coverage)) in experiment [1] (setting [2]); 4 (Heavy growth (60% to complete coverage)) in experiment [1] (setting [3]); 4 (Heavy growth (60% to complete coverage)) in experiment [1] (setting [4]); 2 (Light growth (10 to 30%)) in experiment [1] (setting [5]); 1 (Traces of growth (less than 10%)) in experiment [1] (setting [6]). Also, in experiment [1], the “Overall efficacy” value is “better than TBZ, however still not fully satisfactory”.
For `c1ccc2[nH]c(-c3cscn3)nc2c1` [TBZ, thiabendazole], the “Fungal growth rating, Stachybotris” value is 4 (Heavy growth (60% to complete coverage)) in the experiment on Stachybotris chartarum (setting [2]); 4 (Heavy growth (60% to complete coverage)) with Stachybotris chartarum (setting [3]); 4 (Heavy growth (60% to complete coverage)) in the experiment with Stachybotris chartarum (setting [4]); 4 (Heavy growth (60% to complete coverage)) with Stachybotris chartarum (setting [5]); 3 (Medium growth (30 to 60%)) in the experiment on Stachybotris chartarum (setting [6]). The “Fungal growth rating, Fungi Mix” value is 4 (Heavy growth (60% to complete coverage)) in experiment [1] (setting [2]); 4 (Heavy growth (60% to complete coverage)) in experiment [1] (setting [3]); 4 (Heavy growth (60% to complete coverage)) in experiment [1] (setting [4]); 4 (Heavy growth (60% to complete coverage)) in experiment [1] (setting [5]); 3 (Medium growth (30 to 60%)) in experiment [1] (setting [6]). Moreover, the “Overall efficacy” value in experiment [1] is listed as “not good enough for control of fungi growth; also recorded: neither TBZ nor AZO alone are good enough to pass the ASTM G 21 test”.
